Values of other authors in patent US6596884B2, “Synthesis of hydrogen peroxide” (University of Pittsburgh, priority 1998, dated 2003).

Settings: obtained by extrapolation of the data from Santacesaria et al., Ind. Eng. Chem. Res., 1994, 33, 277

CCc1ccc2c(c1)C(=O)c1ccccc1C2=O [Entry 2-EtAQ]
kc: 0.47^(3) cm^3/(g s)
